Source: patent US11684607B2, “Secnidazole for use in the treatment of bacterial vaginosis” (priority 2014, dated 2023)

Experiments:
[1] = test system: bacterial vaginosis; test: Phase 2 double-blind placebo-controlled study, clinical outcome responder (clinical cure) in women with bacterial vaginosis; assay type: in vivo, human
Excerpt: (§1) The study was designed in accordance with FDA guidance for pivotal bacterial vaginosis trials with a primary end point clinical cure in the Modified Intent-to-Treat (mITT) population at day 21 to 30 versus placebo (two-sided test at alpha=0.05). Subjects were recruited to the study they presented with the following Amsel criteria: presence of typical discharge. a positive KOH Whiff test vaginal fluid pH greater than or equal to 4.7, and the presence of “clue cells” (epithelial cells with adhering bacteria) on microscopic examination.

[2] = design: species or system human; conditions: in vivo
Excerpt: as §1

## Cc1ncc([N+](=O)[O-])n1CC(C)O (centres unmarked) [SYM-1219, 1-(2-hydroxypropyl)-2-methyl-5-nitromidazole]
[1]; 2 gram single dose, subjects with 3 or fewer as well as 4 or more episodes in the past 12 months
  effectiveness in treating bacterial vaginosis: effective
[1]; 2 gram single-dose
  effectiveness for bacterial vaginosis compared with placebo: effective
[1]; single 2 g oral dose, 21-30 days after treatment
  clinical cure rate: 67.7%
[2]; female, human
  Acute sinusitis: Events: 0 n
  Acute sinusitis: Subjects: 0 n
  Adverse Event: Abdominal pain: 0%
  Adverse Event: Diarrhea: 0%
  Adverse Event: Fungal Infection: 3%
  Adverse Event: Headache: 1%
  Adverse Event: Metallic/Unusual Taste: 1%
  Adverse Event: Nausea: 1%
  Adverse Event: Vulva/Vaginal Irritation: 1%
  Alanine aminotransferase increased: Events: 1 n
  Any Adverse Event, Overall: Events: 19 n
  Aspartate aminotransferase increased: Events: 1 n
  Candida infection: Events: 0 n
  Candida infection: Subjects: 0 n
  Chlamydial infection: Events: 1 n
  Chromaturia: Events: 1 n
  Dizziness: Events: 1 n
  Dysgeusia: Events: 1 n
  Fungal infection: Events: 0 n
  Fungal infection: Subjects: 0 n
  Gastrointestinal disorders, Overall: Events: 1 n
  Gonorrhoea: Events: 1 n
  Headache: Events: 1 n
  Infections and infestations, Overall: Events: 7 n
  Injury, poisoning and procedural complications, Overall: Events: 1 n
  Investigations, Overall: Events: 2 n
  Nausea: Events: 1 n
  Nervous system disorders, Overall: Events: 3 n
  Oropharyngeal pain: Events: 1 n
  Renal and urinary disorders, Overall: Events: 1 n
  Reproductive system and breast disorders, Overall: Events: 3 n
  Respiratory, thoracic and mediastinal disorders, Overall: Events: 1 n
  Surgical and medical procedures, Overall: Events: 0 n
  Surgical and medical procedures, Overall: Subjects: 0 n
  Thermal burn: Events: 1 n
  Tooth abscess: Events: 1 n
  Tooth extraction: Events: 0 n
  Tooth extraction: Subjects: 0 n
  Tooth infection: Events: 1 n
  Upper respiratory tract infection: Events: 0 n
  Upper respiratory tract infection: Subjects: 0 n
  Urinary tract infection: Events: 1 n
  Vaginal discharge: Events: 1 n
  Vaginal odor: Events: 1 n
  Vulvovaginal mycotic infection: Events: 2 n
  Vulvovaginal pruritus: Events: 1 n
[2]
  tolerability: surprisingly well tolerated
